# Laboratory results: ChEMBL document CHEMBL5550184, “Structure-activity relationships of middle-size cyclic peptides, KRAS inhibitors derived from an mRNA display” (Bioorg Med Chem, 2024)
# Starred links: 1 amine or outer side, 2 acyl side, 3 side chain; linkers in the order of their positions; H or OH if unused. Positions of bridges follow the written chain, without caps; N, C: chain ends. Non-standard residues stand in square brackets, D forms with d. Residues, ends and D or L forms follow the SMILES beside them. *: point of attachment. hPhe(3-Cl-4-CF3) = N[C@@H](CCc1ccc(C(F)(F)F)c(Cl)c1)C(=O)O; X2 = CN([C@@H](CC(=O)[*:2])C(=O)n1cccc1)[*:1]; NMePhe(4-Cl) = CN[C@@H](Cc1ccc(Cl)cc1)C(=O)O; Phe(3-Cl) = N[C@@H](Cc1cccc(Cl)c1)C(=O)O; NMeGly(cPent) = CN[C@H](C(=O)O)C1CCCC1; NMeGly(cBu) = CN[C@H](C(=O)O)C1CCC1; NMeCha = CN[C@@H](CC1CCCCC1)C(=O)O; NMeGly(cPr) = CN[C@H](C(=O)O)C1CC1; NEtLeu = CCN[C@@H](CC(C)C)C(=O)O; NMeChg = CN[C@H](C(=O)O)C1CCCCC1; NMeF = CN[C@@H](Cc1ccccc1)C(=O)O; NMeI = CC[C@H](C)[C@H](NC)C(=O)O; NMeD = CN[C@@H](CC(=O)O)C(=O)O; NMeL = CN[C@@H](CC(C)C)C(=O)O; NMeAc5c = CNC1(C(=O)O)CCCC1; NMeV = CN[C@H](C(=O)O)C(C)C; Azetidin(1-yl) = C1CN(*)C1; NMeA = CN[C@@H](C)C(=O)O; Piperidide = C1CCN(*)CC1; Ac5c = NC1(C(=O)O)CCCC1; Aze = O=C(O)[C@@H]1CCN1; Sar = CNCC(=O)O
# Legend:
# [1] = Inhibition of biotin-tagged KRAS G12D mutant (unknown origin) to recombinant His-tagged SOS1 (unknown origin) protein-protein interaction incubated for 120 mins by AlphaLISA method; parameters: species or system Homo sapiens
# [2] = target: GTPase KRas (Homo sapiens, UniProt P01116, G12D); assay: Binding affinity to biotinylated KRAS G12D mutant (unknown origin) incubated for 120 mins by SPR analysis
# GTPase KRas, sequence (P01116 whole entry G12D): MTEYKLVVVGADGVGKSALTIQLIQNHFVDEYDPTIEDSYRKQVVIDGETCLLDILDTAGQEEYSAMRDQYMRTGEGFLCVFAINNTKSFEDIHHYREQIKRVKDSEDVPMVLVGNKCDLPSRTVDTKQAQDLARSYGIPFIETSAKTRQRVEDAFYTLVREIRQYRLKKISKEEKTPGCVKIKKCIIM
# [3] = tested on: ASPC1; assay: Cytotoxicity against human AsPC1 cells assessed as reduction in cell viability incubated for 7 days by CellTiterGlo Luminescent Cell Viability Assay; type: functional, cell-based; details: ASPC1, 168 h
# [4] = Apparent permeability in human Caco-2 cells incubated for 180 mins by LC-MS/MS method; type: ADME, cell-based
# [5] = tested on: GTPase KRas (Homo sapiens), P01116 [G12D]; assay: Binding affinity to biotinylated KRAS G12D mutant (unknown origin) assessed as Kon incubated for 120 mins by SPR analysis
# GTPase KRas (Homo sapiens), P01116 [G12D], sequence (P01116 whole entry G12D, looked up): as the sequence (P01116 whole entry G12D) above
# [6] = tested on: GTPase KRas (Homo sapiens), P01116 [G12D]; assay: Binding affinity to biotinylated KRAS G12D mutant (unknown origin) assessed as Koff incubated for 120 mins by SPR analysis
Structure (SMILES),IC50 [1] [nM],Kd [2] [nM],IC50 [3] [nM],Papp at 3 h [4] [×10⁻⁶ cm/s],K [5],K [6]
CC[C@H](C)[C@@H]1NC(=O)[C@H](CC(C)C)N(CC)C(=O)C[C@@H](C(=O)N2CCCCC2)N(C)C(=O)[C@H](C2CCCCC2)N(C)C(=O)C2(CCCC2)NC(=O)[C@@H]2CCCN2C(=O)[C@H](CCc2ccc(C(F)(F)F)c(Cl)c2)NC(=O)CN(C)C(=O)[C@H](CC2CCCCC2)N(C)C(=O)CN(C)C(=O)CN(C)C1=O ([NEtLeu]I[Sar][Sar][NMeCha][Sar][hPhe(3-Cl-4-CF3)]P[Ac5c][NMeChg][NMeD]-Piperidide; lactam N-11),< 2,1.1,73,0.29,2.1 10^5/Ms,2.3 10^-4/s
CC[C@H](C)[C@@H]1NC(=O)[C@H](C)N(C)C(=O)C[C@@H](C(=O)N2CCCCC2)N(C)C(=O)[C@H](C2CCCCC2)N(C)C(=O)C2(CCCC2)NC(=O)[C@@H]2CCCN2C(=O)[C@H](CCc2ccc(C(F)(F)F)c(Cl)c2)NC(=O)CN(C)C(=O)[C@H](CC2CCCCC2)N(C)C(=O)CN(C)C(=O)CN(C)C1=O ([NMeA]I[Sar][Sar][NMeCha][Sar][hPhe(3-Cl-4-CF3)]P[Ac5c][NMeChg][NMeD]-Piperidide; lactam N-11),< 2,0.14,91,0.56,1.2 10^6/Ms,1.7 10^-4/s
CC[C@H](C)[C@@H]1NC(=O)C2(CCCC2)N(C)C(=O)C[C@@H](C(=O)N2CCCCC2)N(C)C(=O)[C@H](C2CCCCC2)N(C)C(=O)C2(CCCC2)NC(=O)[C@@H]2CCCN2C(=O)[C@H](CCc2ccc(C(F)(F)F)c(Cl)c2)NC(=O)CN(C)C(=O)[C@H](CC2CCCCC2)N(C)C(=O)CN(C)C(=O)CN(C)C1=O ([NMeAc5c]I[Sar][Sar][NMeCha][Sar][hPhe(3-Cl-4-CF3)]P[Ac5c][NMeChg][NMeD]-Piperidide; lactam N-11),< 2,0.64,65,0.62,3.8 10^5/Ms,2.4 10^-4/s
CC[C@H](C)[C@@H]1NC(=O)[C@H](CC2CCCCC2)N(C)C(=O)C[C@@H](C(=O)N2CCCCC2)N(C)C(=O)[C@H](C2CCCCC2)N(C)C(=O)C2(CCCC2)NC(=O)[C@@H]2CCCN2C(=O)[C@H](CCc2ccc(C(F)(F)F)c(Cl)c2)NC(=O)CN(C)C(=O)[C@H](CC2CCCCC2)N(C)C(=O)CN(C)C(=O)CN(C)C1=O ([NMeCha]I[Sar][Sar][NMeCha][Sar][hPhe(3-Cl-4-CF3)]P[Ac5c][NMeChg][NMeD]-Piperidide; lactam N-11),< 2,2.5,210,0.2,1 10^5/Ms,2.6 10^-4/s
CC[C@H](C)[C@@H]1NC(=O)[C@H](C2CC2)N(C)C(=O)C[C@@H](C(=O)N2CCCCC2)N(C)C(=O)[C@H](C(C)C)N(C)C(=O)C2(CCCC2)NC(=O)[C@@H]2CCCN2C(=O)[C@H](CCc2ccc(C(F)(F)F)c(Cl)c2)NC(=O)CN(C)C(=O)[C@H](CC2CCCCC2)N(C)C(=O)CN(C)C(=O)CN(C)C1=O ([NMeGly(cPr)]I[Sar][Sar][NMeCha][Sar][hPhe(3-Cl-4-CF3)]P[Ac5c][NMeV][NMeD]-Piperidide; lactam N-11),8.5,–,720,0.46,–,–
CC[C@H](C)[C@@H]1NC(=O)[C@H](CC(C)C)N(C)C(=O)C[C@@H](C(=O)N2CCCCC2)N(C)C(=O)[C@H](C)N(C)C(=O)C2(CCCC2)NC(=O)[C@@H]2CCCN2C(=O)[C@H](CCc2ccc(C(F)(F)F)c(Cl)c2)NC(=O)CN(C)C(=O)[C@H](CC2CCCCC2)N(C)C(=O)[C@@H]2CCN2C(=O)[C@H](C)N(C)C1=O ([NMeL]I[NMeA][Aze][NMeCha][Sar][hPhe(3-Cl-4-CF3)]P[Ac5c][NMeA][NMeD]-Piperidide; lactam N-11),> 1000,–,5200,0.97,–,–
CC[C@H](C)[C@@H]1NC(=O)[C@H](CC(C)C)N(C)C(=O)C[C@@H](C(=O)N2CCCCC2)N(C)C(=O)[C@H](C2CCCCC2)N(C)C(=O)C2(CCCC2)NC(=O)[C@@H]2CCCN2C(=O)[C@H](CCc2ccc(C(F)(F)F)c(Cl)c2)NC(=O)CN(C)C(=O)[C@H](CC2CCCCC2)N(C)C(=O)[C@@H]2CCN2C(=O)[C@H](C)N(C)C1=O ([NMeL]I[NMeA][Aze][NMeCha][Sar][hPhe(3-Cl-4-CF3)]P[Ac5c][NMeChg][NMeD]-Piperidide; lactam N-11),< 2,–,140,0.97,–,–
CC[C@H](C)[C@@H]1NC(=O)[C@H](CC(C)C)N(C)C(=O)C[C@@H](C(=O)N2CCCCC2)N(C)C(=O)[C@H](C2CCC2)N(C)C(=O)C2(CCCC2)NC(=O)[C@@H]2CCCN2C(=O)[C@H](CCc2ccc(C(F)(F)F)c(Cl)c2)NC(=O)CN(C)C(=O)[C@H](CC2CCCCC2)N(C)C(=O)[C@@H]2CCN2C(=O)[C@H](C)N(C)C1=O ([NMeL]I[NMeA][Aze][NMeCha][Sar][hPhe(3-Cl-4-CF3)]P[Ac5c][NMeGly(cBu)][NMeD]-Piperidide; lactam N-11),2.5,–,170,0.91,–,–
CC[C@H](C)[C@@H]1NC(=O)[C@H](CC(C)C)N(C)C(=O)C[C@@H](C(=O)N(C)C)N(C)C(=O)[C@H](C2CCCC2)N(C)C(=O)C2(CCCC2)NC(=O)[C@@H]2CCCN2C(=O)[C@H](CCc2ccc(C(F)(F)F)c(Cl)c2)NC(=O)CN(C)C(=O)[C@H](CC2CCCCC2)N(C)C(=O)[C@@H]2CCN2C(=O)[C@H](C)N(C)C1=O ([NMeL]I[NMeA][Aze][NMeCha][Sar][hPhe(3-Cl-4-CF3)]P[Ac5c][NMeGly(cPent)][NMeD]-NMe2; lactam N-11),< 2,0.16,5.5,2.61,–,–
CC[C@H](C)[C@@H]1NC(=O)[C@H](CC(C)C)N(C)C(=O)C[C@@H](C(=O)N2CCC2)N(C)C(=O)[C@H](C2CCCC2)N(C)C(=O)C2(CCCC2)NC(=O)[C@@H]2CCCN2C(=O)[C@H](CCc2ccc(C(F)(F)F)c(Cl)c2)NC(=O)CN(C)C(=O)[C@H](CC2CCCCC2)N(C)C(=O)[C@@H]2CCN2C(=O)[C@H](C)N(C)C1=O ([NMeL]I[NMeA][Aze][NMeCha][Sar][hPhe(3-Cl-4-CF3)]P[Ac5c][NMeGly(cPent)][NMeD]-{Azetidin(1-yl)}; lactam N-11),< 2,0.19,13,2.66,–,–
CC[C@H](C)[C@@H]1NC(=O)[C@H](CC(C)C)N(C)C(=O)C[C@@H](C(=O)N2CCCCC2)N(C)C(=O)[C@H](C2CC2)N(C)C(=O)C2(CCCC2)NC(=O)[C@@H]2CCCN2C(=O)[C@H](CCc2ccc(C(F)(F)F)c(Cl)c2)NC(=O)CN(C)C(=O)[C@H](CC2CCCCC2)N(C)C(=O)[C@@H]2CCN2C(=O)[C@H](C)N(C)C1=O ([NMeL]I[NMeA][Aze][NMeCha][Sar][hPhe(3-Cl-4-CF3)]P[Ac5c][NMeGly(cPr)][NMeD]-Piperidide; lactam N-11),50,–,1100,1.36,–,–
CC[C@H](C)[C@@H]1NC(=O)[C@H](CC(C)C)N(C)C(=O)C[C@@H](C(=O)N2CCCCC2)N(C)C(=O)[C@H]([C@@H](C)CC)N(C)C(=O)C2(CCCC2)NC(=O)[C@@H]2CCCN2C(=O)[C@H](CCc2ccc(C(F)(F)F)c(Cl)c2)NC(=O)CN(C)C(=O)[C@H](CC2CCCCC2)N(C)C(=O)[C@@H]2CCN2C(=O)[C@H](C)N(C)C1=O ([NMeL]I[NMeA][Aze][NMeCha][Sar][hPhe(3-Cl-4-CF3)]P[Ac5c][NMeI][NMeD]-Piperidide; lactam N-11),2.8,–,48,0.75,–,–
CC[C@H](C)[C@@H]1NC(=O)[C@H](CC(C)C)N(C)C(=O)C[C@@H](C(=O)N2CCCCC2)N(C)C(=O)[C@H](C(C)C)N(C)C(=O)C2(CCCC2)NC(=O)[C@@H]2CCCN2C(=O)[C@H](CCc2ccc(C(F)(F)F)c(Cl)c2)NC(=O)CN(C)C(=O)[C@H](CC2CCCCC2)N(C)C(=O)[C@@H]2CCN2C(=O)[C@H](C)N(C)C1=O ([NMeL]I[NMeA][Aze][NMeCha][Sar][hPhe(3-Cl-4-CF3)]P[Ac5c][NMeV][NMeD]-Piperidide; lactam N-11),4.1,–,110,1.3,–,–
CC[C@H](C)[C@@H]1NC(=O)[C@H](CC(C)C)N(C)C(=O)C[C@@H](C(=O)N2CCCCC2)N(C)C(=O)[C@H](C(C)C)N(C)C(=O)C2(CCCC2)NC(=O)[C@@H]2CCCN2C(=O)[C@H](CCc2ccc(C(F)(F)F)c(Cl)c2)NC(=O)CN(C)C(=O)[C@H](CC2CCCCC2)N(C)C(=O)CN(C)C(=O)CN(C)C1=O ([NMeL]I[Sar][Sar][NMeCha][Sar][hPhe(3-Cl-4-CF3)]P[Ac5c][NMeV][NMeD]-Piperidide; lactam N-11),6,–,120,1.12,–,–
CC[C@H](C)[C@@H]1NC(=O)[C@H](C)N(C)C(=O)C[C@@H](C(=O)n2cccc2)N(C)C(=O)[C@H](CC(C)C)N(C)C(=O)[C@H](Cc2ccccc2)N(C)C(=O)[C@H](Cc2ccccc2)NC(=O)[C@H](Cc2cccc(Cl)c2)NC(=O)CN(C)C(=O)[C@H](Cc2ccc(Cl)cc2)N(C)C(=O)CN(C)C(=O)CN(C)C1=O (cyclo(F[NMeF][NMeL][X2][NMeA]I[Sar][Sar][NMePhe(4-Cl)][Sar][Phe(3-Cl)])),36,–,> 20000,0.87,–,–
